Data on two compounds can be found in article PMC6817905, “Inhibition of translation termination by small molecules targeting ribosomal release factors” (Scientific Reports, 2019).

Assay [1] concerns Escherichia coli strain MG1655. The assay can be described thus: MIC on bacterial growth, wt E. coli (broth micro-dilution). Particulars: 500 mg l^−1 highest concentration tested. Format: cell-based. Here is the method: The four different strains analyzed were wild type (wt) Staphylococcus aureus (strain ATCC 29213), wt Escherichia coli (strain MG1655, K12), a drug-hypersensitive E. coli lpxC mutant D22 (strain MG1655) and an efflux-defective E. coli ΔtolC mutant (strain MG1655). These were grown in cation-adjusted Mueller Hinton II media (MH II, Nordic Biolabs), the standard medium for antibiotic susceptibility testing. For overnight cell cultures one colony from a MH II (Nordic Biolabs) plate was inoculated in 1 ml MH II media in a 10 ml tube and the bacteria was incubated at 37 °C shaking at 190 rpm. Cells from the overnight culture was used for MIC determinations and time-kill experiments.
The minimal inhibitory concentrations (MIC) of the drugs were measured in 96-well round-bottom microtiter plates using cation-adjusted Mueller-Hinton II (MH II) media. All measurements were done with at least three biological replicates. Briefly, bacterial colonies from a non-selective agar plate were re-suspended in 0.9% NaCl to 0.5 McFarland ( ≅1.5×10^8 cfu/ml). The cell suspension was further diluted to ≅5×10^5 cfu/ml (50 µl of bacterial suspension to 10 ml of MHII) and then 90 µl of cell suspension ( ≅5×10^5 […]) was added to each well. […] The MIC value was determined visually as the lowest concentration of drug that inhibited growth.

Assay [2] relates to Staphylococcus aureus strain ATCC29213. The assay is described as follows: MIC on bacterial growth, wt S. aureus (broth micro-dilution). Format: cell-based.
Experimental: The minimal inhibitory concentrations (MIC) of the drugs were measured in 96-well round-bottom microtiter plates using cation-adjusted Mueller-Hinton II (MH II) media. All measurements were done with at least three biological replicates. Briefly, bacterial colonies from a non-selective agar plate were re-suspended in 0.9% NaCl to 0.5 McFarland ( ≅1.5×10^8 cfu/ml). The cell suspension was further diluted to ≅5×10^5 cfu/ml (50 µl of bacterial suspension to 10 ml of MHII) and then 90 µl of cell suspension ( ≅5×10^5 cfu/l) was added to each well. […] The MIC value was determined visually as the lowest concentration of drug that inhibited growth.
Assay [3] concerns the target PTC of the ribosome. Also noted: method as in PMID 23824292. Particulars: read-out: Apparent Ki, peptide release; cited from earlier work.
Assay [4] concerns the target PTC of the ribosome. Set-up: method as in PMID 23824292. Particulars: fold higher Ki than for termination; cited from earlier work.

For kirromycin, the “MIC E. coli K12 wt” value in assay [1] amounted to 50 µg/mL. Further, in assay [2], the “MIC S. aureus wt” value worked out at 100 µg/mL.

For the compound `CN(CC[C@H](N)CC(=O)N[C@H]1C=C[C@H](n2ccc(N)nc2=O)O[C@@H]1C(=O)O)C(=N)N` [Blasticidin S], on PTC of the ribosome [3], the Ki was approximately 30 nM. Further, at PTC of the ribosome [4], the “Ki for peptide bond formation relative to termination reaction” value is given as 6 fold.
